# Test results as given in PMC12796071, “Evaluation of [^18F]MNI-1054, a novel PET ligand for lysine-specific histone demethylase 1A (LSD1), in non-human primates” (EJNMMI Research, 2025).
# “Also recorded” adds a separate entry of the source.
# Tests used:
# [1] = Arterial plasma radiometabolite analysis (parent fraction) during PET; assay type: in vivo, rhesus monkeys (macaca mulatta); conditions: for parent fraction in arterial plasma: across baseline and blocking studies
# Protocol: (§1) All brain scans were collected over 3 h on a microPET Focus 220 PET scanner (Siemens), with injected doses in the range 167.61–185 MBq. A transmission scan with an external Germanium-68 source was performed prior to the emission scans to estimate attenuation correction coefficients. Discrete arterial blood samples (n = 18–21) were taken throughout the scans to measure the parent fraction, plasma free fraction as well as total plasma and whole-blood activity for tracer kinetic modeling. Detailed procedures are provided in the Supplement.
# To generate arterial input functions, [^18F]MNI-1054 parent fraction measurements in plasma were first fitted to a sum of decaying exponentials using the Levenberg-Marquardt algorithm. The total arterial plasma activity concentration measurements were then multiplied by the resulting continuous parent fractions to yield the final input functions for kinetic modeling.
# Arterial blood samples (1 mL or 3.5 mL) were drawn at 0.75, 1.5, 2.25, 3, 3.75, 4, 5, 6, 8, 10, 15, 20, 25, 30, 45, 60, 90, 120, 150, and 180 min post-injection to measure parent fraction, total plasma and whole blood activity. The larger samples were drawn for analysis of parent fraction. Aliquots of 200 µL of whole blood were counted in a gamma counter (Wallac 2480 Wizard^2® Automatic Gamma Counter, Perkin-Elmer, Waltham, Massachusetts) for 1 min (400-1400 keV window). All blood samples were centrifuged for 10 min at 3,000 g and the plasma separated. Aliquots of 200 µL of plasma were counted in the gamma counter for 1 min (400-1400 keV window).
# The fraction of unchanged radiotracer in plasma was determined by HPLC at selected time points. […] Sample vials and pellets were counted in the gamma counter for 1 min to calculate the extraction percentage. Gamma chromatograms were analyzed by integration of all radioactive peaks. The percentage of parent compound was calculated by dividing the area under the peak representing parent compound by the sum of the area of all radioactive peaks.
# LSD1 = LSD1 (Macaca mulatta, UniProt I2CUD2); assay: Brain PET imaging and kinetic analysis of [18F]MNI-1054 (irreversible 2TCM, Patlak); assay type: in vivo; parameters: from tissue; host or cells: brain of living rhesus monkeys (M1, M2), in vivo PET; conditions: for Average Ki bias (SD) versus full 180-min scan: baseline studies; for Ki Baseline: cerebellum
# Protocol: as §1
# M1 and M2 each completed a scan at baseline to assess brain penetration and kinetics and to serve as reference for the blocking and displacement studies. A self-block study with cold 3 mg/kg MNI-1054, starting 5 min prior to [^18F]MNI-1054 administration, was conducted in M1 to assess regional differences in non-specific binding.
# Blocking studies with the LSD1 inhibitor TAK-418 ([…]) were performed to measure the dose-occupancy relationship for this compound. For blocking studies, TAK-418 was administered intravenously 2 h prior to [^18F]MNI-1054. Prior to conducting these blocking studies, a displacement study with TAK-418 (3 mg/kg) was performed to confirm irreversible tracer binding, in which TAK-418 was administered 1.5 h post [^18F]MNI-1054 administration. For all studies involving TAK-418, the test article was administered intravenously over 5 min. Due to the irreversible binding of these compounds to LSD1, the time taken for the enzyme to re-populate was investigated by imaging one animal (M2) with [^18F]MNI-1054 at 24 and 48 h post TAK-418 treatment (0.3 mg/kg). Each animal also underwent a high-resolution T1-weighted structural brain MRI scan with a 3-D MPRAGE sequence on a separate day for anatomical reference.
# Emission data were reconstructed with filtered back projection into a series of 45 temporal frames (6 × 30, 3 × 60, 2 × 120, 34 × 300 s). For each frame, reconstructed images had dimensions of 256 × 256 × 95, voxel size of 0.949 × 0.949 × 0.796 mm and units of kBq/mL. All standard corrections were applied including normalization, random, scatter, dead-time, and attenuation. Dynamic brain PET images were analyzed using an in-house processing pipeline incorporating functionalities from FSL [18] and AFNI [19] as well as custom developed Matlab scripts (Mathworks Inc., Natick, MA, USA). Key steps of the workflow included rigidly aligning the PET images to the same animal’s brain MRI scan and spatially normalizing the MRI volume to the INIA19 [20] and NMT2.0 [21, 22] rhesus MR templates. Volumes of interest (VOIs) masks defined in rhesus MR template spaces were then inverse warped and applied to the PET images in their native orientation to compute time-activity curves (TACs) for the following regions: occipital lobe, temporal lobe, frontal lobe, parietal lobe, olfactory cortex, amygdala, cingulate, hippocampus, thalamus, hypothalamus, cerebellar grey matter, pons, striatum, nucleus accumbens and cerebral white matter. Lobar VOI masks were restricted to grey matter only. All VOI masks were derived from the INIA19 atlas, with the exception of the pons mask which was obtained from the NMT2.0 atlas (Fig. S.2.). The average activity concentration (kBq/mL) within each VOI was determined and TACs representing the regional brain activity concentration over time were generated. Brain TACs and images were presented in SUV units [g/mL] by normalizing activity concentration data [kBq/mL] by the animal’s weight [kg] and injected activity [MBq].
# Regional TACs were modeled with an irreversible 2-tissue compartmental model (‘2TCM’) (k4 = 0) with the arterial input function to determine the tracer binding parameters Ki [mL/cm^3/min] (where Ki= K1. k3/(k2 + k3)) and λ.k3 (where λ = K1/k2), a parameter independent of blood flow and proportional to LSD1 binding site density via k3. […]
# [2] = irreversible 2TCM, across all scans and regions
smiles,measurement,setting,value
Cc1cc([18F])ncc1C(=O)Nc1ccc([C@@H]2C[C@H]2NCC2CC2)cc1 [[^18F]MNI-1054],parent fraction in arterial plasma,[1]; 30 min post-injection,~ 42%
same,parent fraction in arterial plasma,[1]; 180 min post-injection,~ 14%
same,"parent fraction and parent-in-plasma activity concentration levels, higher in self-block study",[1]; self-block study (3 mg/kg cold MNI-1054) versus other studies,about 20%
same,displacement of tracer (change in TACs),"LSD1; 3.0 mg/kg TAK-418 given 90 min post tracer injection, M1",no observable change in the TACs; also recorded: did not displace
same,Average Ki bias (SD) versus full 180-min scan,LSD1; 120-min scan duration,8.3 +/- 6.1%
same,Average Ki bias (SD) versus full 180-min scan,LSD1; 150-min scan duration,3.2 +/- 2.8%
same,"difference Ki,Patlak versus Ki,2TCMirrev, mean +/- SD","LSD1; Patlak t* = 30 min, all studies and regions",−0.00494 +/- 0.00348 mL/cm^3/min
same,Regional Ki in displacement study compared with baseline,"LSD1; TAK-418 3 mg/kg 1.5 h post tracer, same animal",did not substantially vary
same,Ki Baseline,LSD1; animal M1,0.058 mL/cm^3/min
same,Ki Baseline,LSD1; animal M2,0.047 mL/cm^3/min
same,"k2/k3, max",LSD1; [2],194.4
same,"k2/k3, mean (SD)",LSD1; [2],24.7 (28.6)
same,"k2/k3, min",LSD1; [2],6.1
